The values below come from PubChem BioAssay (NCI).

Test systems include UACC-62 melanoma; OVCAR-4 ovarian; 786-0 renal; K-562 leukemia; EKVX NSCLC; A498 renal; TK-10 renal; BT-549 breast; NCI/ADR-RES ovarian; DU-145 prostate.
Common to all, as to assay: DTP human tumour cell line panel, 48 h

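Values below derive from 48-hour exposures of cells grown in 96-well plates, with endpoints linearly interpolated between the two concentrations bracketing the appropriate inhibition level. Here, GI50 denotes the concentration required for 50% inhibition of growth. TGI denotes the concentration required for complete inhibition of growth.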

Turning to `C#CCC(N)(CO)C(=O)O` (stereo unspecified), the TGI in the assay on UACC-62 melanoma, with OVCAR-4 ovarian, in the assay with 786-0 renal, in the assay with K-562 leukemia, in the assay on EKVX NSCLC and with A498 renal was above 100 µM each time. The TGI (usually the concentration at which net growth stops) in the assay on TK-10 renal is above 100 µM.
Turning to `CC(=O)[CH-]C(C)=O.[CH2-]C.[CH2-]C.[Tl+3]`, the GI50 with UACC-62 melanoma, in the assay on OVCAR-4 ovarian, in the assay with 786-0 renal, with K-562 leukemia, in the assay with EKVX NSCLC and in the assay on A498 renal was above 100 µM throughout. The GI50 (commonly the concentration at which growth is held to half of that of the control) with TK-10 renal was above 100 µM. The TGI with UACC-62 melanoma, in the assay with OVCAR-4 ovarian, in the assay with 786-0 renal, with K-562 leukemia, in the assay on EKVX NSCLC and in the assay on A498 renal was above 100 µM in each case. In addition, the TGI in the assay with TK-10 renal was above 100 µM.
Take `Cc1ccc(S(=O)(=O)N/N=C(\c2nc3ccc([N+](=O)[O-])cc3[nH]c2=O)C(O)c2ccccc2Cl)cc1` (stereo unspecified): the TGI in the assay with UACC-62 melanoma, in the assay on OVCAR-4 ovarian, with 786-0 renal, in the assay on K-562 leukemia, in the assay with EKVX NSCLC and in the assay on A498 renal was above 100 µM throughout. In the assay on TK-10 renal, this molecule registered a TGI above 100 µM.
For the molecule `C=CCC1[C@@H](C(C)(C)C(C(C)=O)C(=O)C(=O)OC)OC(C(C)(C)C)N1C(=O)OC` (stereo partly specified), the total growth inhibition concentration (TGI) in the assay with UACC-62 melanoma, in the assay with OVCAR-4 ovarian, with 786-0 renal, in the assay with K-562 leukemia, with EKVX NSCLC and in the assay on A498 renal was above 100 µM throughout. Also, the total growth inhibition concentration (TGI) in the assay with TK-10 renal is above 100 µM.
Consider `CCOC(=O)C(=O)Nc1ccccc1C(F)(F)F`, for which the TGI in the assay with UACC-62 melanoma, in the assay with OVCAR-4 ovarian, in the assay with 786-0 renal, in the assay with EKVX NSCLC, in the assay with A498 renal and in the assay on TK-10 renal was above 100 µM each time.
For the molecule `O=C1C(SCCO)=C(SCCO)C(=O)c2ccccc21`, the TGI in the assay with UACC-62 melanoma turned out to be 2.84 µM; in the assay on OVCAR-4 ovarian it was 0.671 µM; in the assay on 786-0 renal it was 3.91 µM; in the assay with BT-549 breast it was 2.89 µM; in the assay on K-562 leukemia, 3.87 µM; in the assay with EKVX NSCLC it was 3.08 µM. In addition, the values for the TGI with A498 renal, in the assay on NCI/ADR-RES ovarian and in the assay with TK-10 renal were 1.35 µM, 2.53 µM and 3.39 µM, respectively.
With `NC(=O)/C=C/C(=O)O`, the TGI in the assay with UACC-62 melanoma, in the assay on OVCAR-4 ovarian, with 786-0 renal, with K-562 leukemia and in the assay on TK-10 renal was above 5000 µM each time.
For the molecule `COc1cc2cnc3c4ccccc4ccc3c2cc1OC`, the TGI in the assay on UACC-62 melanoma, with OVCAR-4 ovarian, with 786-0 renal, in the assay with K-562 leukemia, in the assay with EKVX NSCLC and in the assay with A498 renal was above 100 µM in each case. In the assay with TK-10 renal, the TGI was above 100 µM.
In the case of `COc1cccc(/C=C2\CCC(C)(CN(C)C)C2=O)c1` (stereo unspecified), the TGI with UACC-62 melanoma, with OVCAR-4 ovarian, in the assay on 786-0 renal, in the assay on K-562 leukemia, in the assay on EKVX NSCLC and in the assay with A498 renal was above 100 µM each time. Moreover, the TGI in the assay with TK-10 renal was above 100 µM.
For `CNC(SC)=C1C(=O)OC(C)(C)OC1=O`, the TGI with UACC-62 melanoma, with 786-0 renal, in the assay on K-562 leukemia, with EKVX NSCLC, with A498 renal and with TK-10 renal was above 100 µM throughout.
In the case of `CC(CC(=O)Nc1ccc(NC(=O)CC(C)N=NC(N)=S)cc1)N=NC(N)=S` (stereo unspecified), the TGI with UACC-62 melanoma, in the assay with OVCAR-4 ovarian, in the assay with 786-0 renal, in the assay with K-562 leukemia, with EKVX NSCLC and in the assay with A498 renal was above 100 µM throughout. The molecule further showed a TGI in the assay with TK-10 renal above 100 µM.
On to `CC1=C(C(=O)Nc2ccccc2C)C(/C=C/c2ccccc2)C(C(=O)Nc2ccccc2C)=C(C)N1`, for which the TGI in the assay with UACC-62 melanoma, with OVCAR-4 ovarian, with 786-0 renal, in the assay on K-562 leukemia, in the assay with EKVX NSCLC and in the assay with A498 renal was above 100 µM each time. In the assay with TK-10 renal, this molecule came in with a TGI above 100 µM.
Take `O=C/C(=C(/Cl)c1ccc(O)cc1)c1ccccc1`: the TGI with UACC-62 melanoma is 22 µM; in the assay with OVCAR-4 ovarian, above 54 µM; with 786-0 renal, above 66.3 µM; in the assay on K-562 leukemia it was above 100 µM; in the assay on DU-145 prostate it was above 100 µM; in the assay with EKVX NSCLC, above 75.7 µM. In addition, the figures for the TGI in the assay on A498 renal and in the assay with TK-10 renal were above 100 µM and above 56 µM, respectively.
For the molecule `CCCCCCCCCCCCCC(=O)OCC1OC(=O)CC1O` (stereo unspecified), the TGI was above 100 µM with UACC-62 melanoma; above 100 µM in the assay with OVCAR-4 ovarian; above 100 µM in the assay with 786-0 renal; 61.5 µM in the assay on K-562 leukemia; above 100 µM with EKVX NSCLC; above 100 µM with A498 renal. In addition, in the assay with TK-10 renal, the TGI is above 100 µM.
For the molecule `O=c1ncccn1C1C=C(CO)C(O)C1O` (stereo unspecified), the TGI in the assay with OVCAR-4 ovarian, with 786-0 renal, in the assay with K-562 leukemia, in the assay with EKVX NSCLC, in the assay on A498 renal and in the assay with TK-10 renal was above 50 µM throughout.
`CC1(C)OC2COC3(CNO)OC(C)(C)OC3C2O1` (stereo unspecified): the TGI in the assay on UACC-62 melanoma, in the assay on OVCAR-4 ovarian, in the assay with 786-0 renal, with K-562 leukemia, in the assay on EKVX NSCLC and with A498 renal was above 100 µM each time. The TGI in the assay on TK-10 renal is above 100 µM.
For `NC(N)=NS(=O)(=O)c1ccc(NC(=O)c2cccc3c(Nc4ccc(S(N)(=O)=O)cc4)c4ccccc4nc23)cc1`, the TGI in the assay with UACC-62 melanoma, with OVCAR-4 ovarian, in the assay on 786-0 renal, with K-562 leukemia, in the assay on EKVX NSCLC and in the assay with A498 renal was above 100 µM each time. Moreover, the TGI in the assay with TK-10 renal was above 100 µM.
As for `COC(=O)/C(C#N)=C1\CCC(C(=O)OC)N1C` (stereo unspecified), the TGI in the assay on UACC-62 melanoma, in the assay with OVCAR-4 ovarian, with 786-0 renal, in the assay on K-562 leukemia, in the assay on EKVX NSCLC and in the assay with A498 renal was above 100 µM in each case. Further, the total growth inhibition concentration (TGI) in the assay on TK-10 renal was above 100 µM.
